Key:
Type in all cases: in vivo
Set-up in all cases: key: 5: completely killed; 4: seriously injured; 3: considerably injured; 2: somewhat injured; 1: slightly injured; 0: not injured (normally grown)
rice [1] = assay: Experiment 2 foliage treatment: rice; details: 4 weeks after treatment
Description: (§1) Upon seedling stage (two- or three-leaved stage) of rice, cockspur (Panicum crus-galli), garden radish, aobiyu (slender amaranth, Amaranthus viridis) and mehishiba (henry crabgrass, Digitaria cliaris) which were grown on a cultivated soil put in pots of 1/15500 ares, a selected compound obtained in a manner analogous to Example 8, in suspended wettable powder, was sprayed to each plant. After that, the pots were kept in a glass chamber to allow each plant to grow, and after the lapse of 4 weeks from the treatment with the selected compounds the herbicidal effects were evaluated. The evaluation of the herbicidal effects was similarly conducted as to that of Experiment 1.

[2] = test system: tamagayatsuri (small-flowered umbrellaplant, Cyperus difformis); assay: Experiment 1 flooded soil treatment: tamagayatsuri; details: 4 weeks after treatment
Source text: (§2) Paddy soil (clay loam) was put into a pot so as to have a surface area of 1/15500 ares. Uniformly mixed seeds of several kinds of weeds, viz., nobie (barnyardgrass, Echinochloa spp.), broad-leaved weeds, hotarui (bulrush, Scirpus juncoides) and tamagayatsuri (small-flowered umbrellaplant, Cyperus difformis), were sown in the surface layer of the soil in each pot, and then paddy rice seedlings at the two- or three-leaved stage were transplanted into each pot to a depth of 2 cm, and water was fed into each pot so as to provide a 3 cm deep water layer on the soil surface. After 3 days, in other words at the initial stage of germination of nobie (barnyardgrass, Echinochloa spp.), a predetermined amount of a selected compound obtained in a manner analogous to Example 8 in the form of diluted aqueous solution was dropped into the water layer in each pot. After that, the pots were kept in a glass chamber to allow the paddy rice and the weeds to grow, and after the lapse of 4 weeks from the treatment with the selected compounds, the herbicidal effects and the degree of injury to the paddy rice were evaluated. In the table, the herbicidal effects and the degree of injury to the paddy rice are indicated by numerical values, which have the following meaning.
(§3) 0: not injured (normally grown)

[3] = test system: mehishiba (henry crabgrass, Digitaria cliaris); assay: Experiment 2 foliage treatment: mehishiba; details: 4 weeks after treatment
Description: as §1

[4] = test system: cockspur (Panicum crus-galli); assay: Experiment 2 foliage treatment: cockspur; details: 4 weeks after treatment
Description: as §1

[5] = test system: nobie (barnyardgrass, Echinochloa spp.); assay: Experiment 1 flooded soil treatment: nobie; details: 4 weeks after treatment
Source text: as §2, §3

[6] = test system: aobiyu (slender amaranth, Amaranthus viridis); assay: Experiment 2 foliage treatment: aobiyu; details: 4 weeks after treatment
Description: as §1

[7] = test system: hotarui (bulrush, Scirpus juncoides); assay: Experiment 1 flooded soil treatment: hotarui; details: 4 weeks after treatment
Source text: as §2, §3

paddy rice [8] = assay: Experiment 1 flooded soil treatment: injury to paddy rice; details: 4 weeks after treatment
Source text: as §2, §3

garden radish [9] = assay: Experiment 2 foliage treatment: garden radish; details: 4 weeks after treatment
Description: as §1

broad-leaved weeds [10] = assay: Experiment 1 flooded soil treatment: broad-leaved weeds; details: 4 weeks after treatment
Source text: as §2, §3

[11] = test system: tamagayatsuri (small-flowered umbrellaplant, Cyperus difformis); assay: Experiment 7 flooded soil treatment: tamagayatsuri; details: evaluated 4 weeks after treatment
Source text: (§4) Paddy soil (clay loam) was put into a pot so as to have a surface area of 1/15500 ares. Uniformly mixed seeds of several kinds of weeds, viz., nobie (barnyardgrass, Echinochloa spp.), broad-leaved weeds, hotarui (bulrush, Scirpus juncoides) and tamagayatsuri (small-flowered umbrellaplant, Cyperus difformis), were sown in the surface layer of the soil in each pot, and then paddy rice seedlings at the two- or three-leaved stage were transplanted into each pot to a depth of 2 cm, and water was fed into each pot so as to provide a 3 cm deep water layer on the soil surface. After 3 days, in other words at the initial stage of germination of nobie (barnyardgrass, Echinochloa spp.), a predetermined amount of a selected compound obtained in a manner analogous to Example 14 in the form of diluted aqueous solution was dropped into the water layer in each pot. After that, the pots were kept in a glass chamber to allow the paddy rice and the weeds to grow, and after the lapse of 4 weeks from the treatment with the selected compounds, the herbicidal effects and the degree of injury to the paddy rice were evaluated. The evaluation of the herbicidal effects was similarly conducted as that of Experiment 1.

[12] = test system: cockspur (Panicum crus-galli); assay: Experiment 8 foliage treatment: cockspur; details: foliage spray of wettable powder suspension, evaluated 4 weeks after treatment
Description: as §1, with “14,” for “8,”

[13] = test system: hotarui (bulrush, Scirpus juncoides); assay: Experiment 7 flooded soil treatment: hotarui; details: evaluated 4 weeks after treatment
Source text: as §4

garden radish [14] = assay: Experiment 8 foliage treatment: garden radish; details: foliage spray of wettable powder suspension, evaluated 4 weeks after treatment
Description: as §1, with “14,” for “8,”

[15] = test system: mehishiba (henry crabgrass, Digitaria cliaris); assay: Experiment 8 foliage treatment: mehishiba; details: foliage spray of wettable powder suspension, evaluated 4 weeks after treatment
Description: as §1, with “14,” for “8,”

broad-leaved weeds [16] = assay: Experiment 7 flooded soil treatment: broad-leaved weeds; details: evaluated 4 weeks after treatment
Source text: as §4

rice [17] = assay: Experiment 8 foliage treatment: rice; details: foliage spray of wettable powder suspension, evaluated 4 weeks after treatment
Description: as §1, with “14,” for “8,”

[18] = test system: aobiyu (slender amaranth, Amaranthus viridis); assay: Experiment 8 foliage treatment: aobiyu; details: foliage spray of wettable powder suspension, evaluated 4 weeks after treatment
Description: as §1, with “14,” for “8,”

paddy rice [19] = assay: Experiment 7 flooded soil treatment: injury to paddy rice; details: evaluated 4 weeks after treatment
Source text: as §4

[20] = test system: nobie (barnyardgrass, Echinochloa spp.); assay: Experiment 7 flooded soil treatment: nobie; details: evaluated 4 weeks after treatment
Source text: as §4

SMILES | Herbicidal Effect tamagayatsuri ([11]; 6.25 g/10a) | Herbicidal Effect tamagayatsuri ([11]; 12.5 g/10a) | Herbicidal Effect cockspur ([12]; 40 g/10a) | Herbicidal Effect cockspur ([12]; 80 g/10a) | Herbicidal Effect hotarui ([13]; 6.25 g/10a) | Herbicidal Effect hotarui ([13]; 12.5 g/10a) | Herbicidal Effect garden radish (garden radish [14]; 40 g/10a) | Herbicidal Effect garden radish (garden radish [14]; 80 g/10a) | Herbicidal Effect mehishiba ([15]; 40 g/10a) | Herbicidal Effect mehishiba ([15]; 80 g/10a) | Herbicidal Effect broad-leaved weed (broad-leaved weeds [16]; 6.25 g/10a) | Herbicidal Effect broad-leaved weed (broad-leaved weeds [16]; 12.5 g/10a) | Herbicidal Effect rice (rice [17]; 40 g/10a) | Herbicidal Effect rice (rice [17]; 80 g/10a) | Herbicidal Effect aobiyu ([18]; 40 g/10a) | Herbicidal Effect aobiyu ([18]; 80 g/10a) | Injury of Paddy (paddy rice [19]; 6.25 g/10a) | Injury of Paddy (paddy rice [19]; 12.5 g/10a) | Herbicidal Effect nobie ([20]; 6.25 g/10a) | Herbicidal Effect nobie ([20]; 12.5 g/10a) | further results
CCOC(=O)C1=C(C(=O)N(C(C)=O)c2cc(SCC(=O)OC)c(Cl)cc2F)CCCC1 [Compound No. 12] | – | – | – | – | – | – | – | – | – | – | – | – | – | – | – | – | – | – | – | – | Herbicidal Effect rice (rice [1]; 40 g/10a): 1; Herbicidal Effect rice (rice [1]; 80 g/10a): 1; Herbicidal Effect tamagayatsuri ([2]; 12.5 g/10a): 5; Herbicidal Effect tamagayatsuri ([2]; 25 g/10a): 5; Herbicidal Effect mehishiba ([3]; 40 g/10a): 1; Herbicidal Effect mehishiba ([3]; 80 g/10a): 1; Herbicidal Effect cockspur ([4]; 40 g/10a): 1; Herbicidal Effect cockspur ([4]; 80 g/10a): 1; Herbicidal Effect nobie ([5]; 12.5 g/10a): 5; Herbicidal Effect nobie ([5]; 25 g/10a): 5; Herbicidal Effect aobiyu ([6]; 40 g/10a): 5; Herbicidal Effect aobiyu ([6]; 80 g/10a): 5; Herbicidal Effect hotarui ([7]; 12.5 g/10a): 4; Herbicidal Effect hotarui ([7]; 25 g/10a): 5; Injury of Paddy (paddy rice [8]; 12.5 g/10a): 0.5; Injury of Paddy (paddy rice [8]; 25 g/10a): 0.5; Herbicidal Effect garden radish (garden radish [9]; 40 g/10a): 5; Herbicidal Effect garden radish (garden radish [9]; 80 g/10a): 5; Herbicidal Effect broad-leaved weed (broad-leaved weeds [10]; 12.5 g/10a): 5; Herbicidal Effect broad-leaved weed (broad-leaved weeds [10]; 25 g/10a): 5
C#CCOC(=O)C1=C(C(=O)N(C(C)=O)c2cc(SCC(=O)OC)c(Cl)cc2F)CCCC1 [compound 15] | – | – | – | – | – | – | – | – | – | – | – | – | – | – | – | – | – | – | – | – | Herbicidal Effect rice (rice [1]; 40 g/10a): 1; Herbicidal Effect rice (rice [1]; 80 g/10a): 1; Herbicidal Effect tamagayatsuri ([2]; 12.5 g/10a): 4; Herbicidal Effect tamagayatsuri ([2]; 25 g/10a): 5; Herbicidal Effect mehishiba ([3]; 40 g/10a): 1; Herbicidal Effect mehishiba ([3]; 80 g/10a): 1; Herbicidal Effect cockspur ([4]; 40 g/10a): 1; Herbicidal Effect cockspur ([4]; 80 g/10a): 1; Herbicidal Effect nobie ([5]; 12.5 g/10a): 5; Herbicidal Effect nobie ([5]; 25 g/10a): 5; Herbicidal Effect aobiyu ([6]; 40 g/10a): 4.5; Herbicidal Effect aobiyu ([6]; 80 g/10a): 5; Herbicidal Effect hotarui ([7]; 12.5 g/10a): 4; Herbicidal Effect hotarui ([7]; 25 g/10a): 4; Injury of Paddy (paddy rice [8]; 12.5 g/10a): 0; Injury of Paddy (paddy rice [8]; 25 g/10a): 0.5; Herbicidal Effect garden radish (garden radish [9]; 40 g/10a): 5; Herbicidal Effect garden radish (garden radish [9]; 80 g/10a): 5; Herbicidal Effect broad-leaved weed (broad-leaved weeds [10]; 12.5 g/10a): 5; Herbicidal Effect broad-leaved weed (broad-leaved weeds [10]; 25 g/10a): 5
COC(=O)C1=C(C(=O)N(C(=O)c2cccs2)c2cc(OC3CCCC3)c(Cl)cc2F)CCCC1 [compound 98] | 5 | 5 | 1 | 1 | 4 | 5 | 4 | 4 | 1 | 1 | 5 | 5 | 1 | 1 | 4 | 5 | 0.5 | 0.5 | 5 | 5 | –
COC(=O)COc1cc(N(C(=O)C2=C(C(=O)OC)CCCC2)C(=O)c2cccs2)c(F)cc1Cl [compound 99] | 4 | 5 | 1 | 1 | 4 | 4 | 4 | 4 | 1 | 1 | 5 | 5 | 1 | 1 | 4 | 5 | 0 | 0 | 5 | 5 | –
C#CC(C)Oc1cc(N(C(=O)C2=C(C(=O)OCCC)CCCC2)C(=O)c2ccsc2)c(F)cc1Cl (stereo not shown) [compound 101] | 5 | 5 | 1 | 1 | 4 | 4 | 5 | 5 | 1 | 1 | 5 | 5 | 1 | 1 | 5 | 5 | 0.5 | 1 | 5 | 5 | –

— patent US6337417B1, “N-phenyltetrahydrophthalamic acid derivatives, methods of producing same, and herbicides containing same as effective components” (Central Glass Co., Ltd., priority 1994, dated 2002)
